# pEC50: −log10 of the molar value. Like-named read-outs stand apart in the source and are kept apart here.
# Molecular target: T1, human α7 nAChR (Homo sapiens, UniProt P36544)
# T1 construct: host or cells: HEK
# Experiment: Automated patch-clamp electrophysiology functional assay (Assay A)
# Format: cell-based
# Conditions: HEK cell line stably expressing human RIC-3 and human α7, IonFlux HT whole-cell population patch, with or without 40 μM acetylcholine
# Description: The α7 nAChR positive allosteric modulator (PAM) activity of the present compounds may be tested using assays known in the art. The α7 nAChR PAMs described herein have activities in an automated patch-clamp electrophysiology functional assay as described in the examples. The assay was performed using the IonFlux HT in a whole-cell, population patch configuration. See Golden et al. Assay Drug Dev. Technol. (2011) 9:608-619. The compounds were assessed for their ability to modulate the function of the human α7 nAChR stably expressed in a HEK cell line both in the presence, and in the absence of the natural α7 agonist acetylcholine. By performing a series of such measurements at different concentrations, the effective concentration of the α7 nAChR PAMs (EC50) was determined. See Spencer et al. Assay Drug Dev. Technol. (2012) 10:313-324.
# Direct activation of α7 (agonism), and potentiation of acetylcholine-evoked α7 currents was determined as follows:
# Automated patch-clamp electrophysiology was performed using the IonFlux HT (Fluxion Biosciences Inc., San Francisco, CA) in the whole-cell, population patch configuration. Test compounds were assessed for their ability to modulate the function of the α7 nicotinic acetylcholine receptor both in the presence, and in the absence of the natural α7 agonist acetylcholine. A HEK cell line stably expressing both human RIC-3 and human α7 (PrecisION hnAChR α7/RIC-3, Eurofins Pharma, St. Charles, MO) was cultured in 175 cm^2 triple-layer tissue culture flasks to no more than 90% confluency in DMEM/F-12 growth media supplemented with 10% heat-inactivated fetal bovine serum, 1% non-essential amino acids, 0.625 μg/mL Puromycin, and 400 μg/mL Geneticin. Immediately prior to assay, cells were detached by first aspirating growth media, rinsing with Dulbecco's phosphate buffered saline, and then adding 10 mL of Accutase (Innovative Cell Technologies, San Diego, CA) to the flask and then incubating at 37° C. for 5 minutes. Detached cells were then recovered by the addition of 40 mL of CHO-serum-free media supplemented with 25 mM HEPES, and rocked gently in a 50 mL conical tube for 20 minutes prior to patch-clamp assay. After recovery, cells were pelleted by centrifugation at 1,000 RPM for 1 minute in a compact bench top centrifuge; recovery media was aspirated and cells were resuspended in external recording solution (150 mM NaCl, 5 mM KCl, 2 mM CaCl2, 1 mM MgCl2, 10 mM HEPES, 12 mM dextrose) to a density of 5.0×10^6 cells/mL. The cell suspension was added to the cell inlet wells on an IonFlux HT population patch plate which had previously been rinsed and primed with deionized H2O. Test compounds were serially diluted in DMSO and then resuspended to the final test concentration in external recording solution, with, or without 40 μM acetylcholine added to the external recording solution; test compounds were then transferred to the IonFlux HT population patch plate. Internal recording solution (110 mM TrisPO4, 28 mM TrisBase, 0.1 mM CaCl2, 2 mM MgCl2, 11 mM EGTA, 4 mM MgATP) was added to the internal recording solution inlet wells on the IonFlux HT patch plate previously loaded with cells and test compounds, and the plate loaded into the IonFlux HT instrument. A protocol was executed on the IonFlux HT to trap the cells, break into the cells, and establish the whole-cell recording configuration; cells were voltage-clamped at a holding potential of −60 mV for the duration of the experiment, all experiments were conducted at room temperature, and the IonFlux HT injection pressure was 8 psi for solution applications. Upon establishing the whole-cell configuration, external recording solution was perfused into the recording chambers for 120 seconds and then 40 μM acetylcholine was applied for 1 second and immediately washed off with external recording solution for 60 seconds. […]
# T1 sequence (P36544 23-502): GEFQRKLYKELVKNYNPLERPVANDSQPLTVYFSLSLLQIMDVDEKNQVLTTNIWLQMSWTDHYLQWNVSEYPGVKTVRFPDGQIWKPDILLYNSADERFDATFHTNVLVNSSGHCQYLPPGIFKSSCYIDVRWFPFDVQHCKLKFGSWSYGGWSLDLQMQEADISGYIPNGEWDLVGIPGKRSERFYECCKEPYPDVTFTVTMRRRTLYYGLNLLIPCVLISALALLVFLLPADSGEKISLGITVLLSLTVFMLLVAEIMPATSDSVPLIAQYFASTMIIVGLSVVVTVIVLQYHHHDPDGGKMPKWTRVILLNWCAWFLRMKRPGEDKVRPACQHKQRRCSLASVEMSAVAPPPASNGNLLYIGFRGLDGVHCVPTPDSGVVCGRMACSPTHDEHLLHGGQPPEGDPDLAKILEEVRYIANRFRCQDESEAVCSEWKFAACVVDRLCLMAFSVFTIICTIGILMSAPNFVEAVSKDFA
Structure (SMILES),pEC50 (read-out: α7 nAChR Potency),pEC50 (read-out: α7 nAChR EC50)
"COc1cccc(OCC2CC23CCN(S(N)(=O)=O)CC3)n1 (racemic) [Example A27, 1-{[(6-methoxypyridin-2-yl)oxy]methyl}-6-azaspiro[2.5]octane-6-sulfonamide]",5.30 to 6.30,–
"NS(=O)(=O)N1CCC2(CC1)C(CSc1nnnn1-c1ccccc1)C2(F)F (single isomer, unassigned) [Example A61, 1,1-difluoro-2-{[(1-phenyl-1H-tetrazol-5-yl)sulfanyl]methyl}-6-azaspiro[2.5]octane-6-sulfonamide]",5.30 to 6.30,5.89
"NS(=O)(=O)N1CCC2(CC1)C(COc1cccnc1OCC(F)(F)F)C2(F)F (single isomer, unassigned) [Example A36, 1,1-difluoro-2-({[2-(2,2,2-trifluoroethoxy)pyridin-3-yl]oxy}methyl)-6-azaspiro[2.5]octane-6-sulfonamide]",5.30 to 6.30,5.92
"N#Cc1cccc(OC[C@@H]2CC23CCN(S(N)(=O)=O)CC3)n1 [Example A47, (1R)-1-{[(6-cyanopyridin-2-yl)oxy]methyl}-6-azaspiro[2.5]octane-6-sulfonamide]",5.30 to 6.30,5.96
"NS(=O)(=O)N1CCC2(CC1)C[C@H]2C(=O)Nc1cccc(Cl)c1 [Example B2, (1R)—N-(3-chlorophenyl)-6-sulfamoyl-6-azaspiro[2.5]octane-1-carboxamide]",5.30 to 6.30,–
"NS(=O)(=O)N1CCC2(CC1)C[C@H]2COc1cccc(-c2ccncc2)n1 [Example A58, (1R)-1-[(2,4′-bipyridin-6-yloxy)methyl]-6-azaspiro[2.5]octane-6-sulfonamide]",5.30 to 6.30,–
"COc1ccc(Cl)cc1OCC1C(F)(F)C12CCN(S(N)(=O)=O)CC2 (single isomer, unassigned) [Example A3, 2-[(5-chloro-2-methoxyphenoxy)methyl]-1,1-difluoro-6-azaspiro[2.5]octane-6-sulfonamide]",5.30 to 6.30,5.89
"NS(=O)(=O)N1CCC2(CC1)C(COc1ccnc(OC(F)F)c1)C2(F)F (single isomer, unassigned) [Example 3, 2-({[2-(Difluoromethoxy)pyridin-4-yl]oxy}methyl)-1,1-difluoro-6-azaspiro[2.5]octane-6-sulfonamide]",5.30 to 6.30,6.03
"Cn1nc(C(F)(F)F)cc1OCC1C(F)(F)C12CCN(S(N)(=O)=O)CC2 (single isomer, unassigned) [Example A12, 1,1-difluoro-2-({[1-methyl-3-(trifluoromethyl)-1H-pyrazol-5-yl]oxy}methyl)-6-azaspiro[2.5]octane-6-sulfonamide]",5.30 to 6.30,5.38
"NS(=O)(=O)N1CCC2(CC1)C[C@@H]2COc1cccc(OCC(F)(F)F)n1 [Example A38, (1S)-1-({[6-(2,2,2-trifluoroethoxy)pyridin-2-yl]oxy}methyl)-6-azaspiro[2.5]octane-6-sulfonamide]",5.30 to 6.30,6.14
"NS(=O)(=O)N1CCC2(CC1)C[C@H]2COc1cccnc1OCC(F)(F)F [Example 8, (1R)-1-({[2-(2,2,2-Trifluoroethoxy)pyridin-3-yl]oxy}methyl)-6-azaspiro[2.5]octane-6-sulfonamide]",5.30 to 6.30,5.92
"NS(=O)(=O)N1CCC2(CC1)C[C@@H]2COc1cccc(OC(F)(F)F)c1 [Example A25, (1S)-1-{[3-(trifluoromethoxy)phenoxy]methyl}-6-azaspiro[2.5]octane-6-sulfonamide]",5.30 to 6.30,5.72
"NS(=O)(=O)N1CCC2(CC1)C[C@H]2COc1noc(-c2ccccc2)n1 [Example 4, (1R)-1-{[(5-Phenyl-1,2,4-oxadiazol-3-yl)oxy]methyl}-6-azaspiro[2.5]octane-6-sulfonamide]",5.30 to 6.30,6.24
"CN1CCN(c2cccc(OC[C@@H]3CC34CCN(S(N)(=O)=O)CC4)n2)CC1 [Example A46, (1R)-1-({[6-(4-methylpiperazin-1-yl)pyridin-2-yl]oxy}methyl)-6-azaspiro[2.5]octane-6-sulfonamide]",5.30 to 6.30,–
"CS(=O)(=O)c1cccc(OC[C@@H]2CC23CCN(S(N)(=O)=O)CC3)n1 [Example A45, (1R)-1-({[6-(methylsulfonyl)pyridin-2-yl]oxy}methyl)-6-azaspiro[2.5]octane-6-sulfonamide]",4.30 to 5.30,–

# Results, then the compound that gave them:
pEC50 (read-out: α7 nAChR Potency),pEC50 (read-out: α7 nAChR EC50),Structure (SMILES)
5.30 to 6.30,–,"COc1cc(OC[C@@H]2CC23CCN(S(N)(=O)=O)CC3)ccc1F [Example A4, (1R)-1-[(4-fluoro-3-methoxyphenoxy)methyl]-6-azaspiro[2.5]octane-6-sulfonamide]"
6.30 to 7.00,–,"NS(=O)(=O)N1CCC2(CC1)C(COc1cccc(OCC(F)(F)F)n1)C2(F)F (single isomer, unassigned) [Example A41, 1,1-difluoro-2-({[6-(2,2,2-trifluoroethoxy)pyridin-2-yl]oxy}methyl)-6-azaspiro[2.5]octane-6-sulfonamide]"
5.30 to 6.30,5.72,"NS(=O)(=O)N1CCC2(CC1)C(/C=C/c1ccc(F)cc1C(F)(F)F)C2(F)F (stereo not shown) [Example 19, 1,1-Difluoro-2-{(E)-2-[4-fluoro-2-(trifluoromethyl)phenyl]ethenyl}-6-azaspiro[2.5]octane-6-sulfonamide]"
6.30 to 7.00,6.89,"NS(=O)(=O)N1CCC2(CC1)C[C@H]2COc1cccc(OCC2CC2)n1 [Example A17, (1R)-1-({[6-(cyclopropylmethoxy)pyridin-2-yl]oxy}methyl)-6-azaspiro[2.5]octane-6-sulfonamide]"
6.30 to 7.00,6.52,"NS(=O)(=O)N1CCC2(CC1)C[C@@H]2COc1cccc(OCC2CC2)n1 [Example A18, (1S)-1-({[6-(cyclopropylmethoxy)pyridin-2-yl]oxy}methyl)-6-azaspiro[2.5]octane-6-sulfonamide]"
≥ 7.00,7.20,"COc1ccc(Cl)cc1NC(=O)[C@@H]1C(F)(F)C12CCN(S(N)(=O)=O)CC2 [Example 15, (1R)—N-(5-Chloro-2-methoxyphenyl)-2,2-difluoro-6-sulfamoyl-6-azaspiro[2.5]octane-1-carboxamide]"
6.30 to 7.00,7.00,"NS(=O)(=O)N1CCC2(CC1)C[C@H]2COc1cccc(N2CCOCC2)n1 [Example 16, (1R)-1-({[6-(Morpholin-4-yl)pyridin-2-yl]oxy}methyl)-6-azaspiro[2.5]octane-6-sulfonamide]"
≥ 7.00,7.16,"NS(=O)(=O)N1CCC2(CC1)C[C@H]2COc1cccc(-c2ccccc2)n1 [Example A57, (1R)-1-{[(6-phenylpyridin-2-yl)oxy]methyl}-6-azaspiro[2.5]octane-6-sulfonamide]"
6.30 to 7.00,6.72,"COc1cc(OC[C@H]2CC23CCN(S(N)(=O)=O)CC3)nc(OCC(F)(F)F)c1 [Example A16, (1S)-1-({[4-methoxy-6-(2,2,2-trifluoroethoxy)pyridin-2-yl]oxy}methyl)-6-azaspiro[2.5]octane-6-sulfonamide]"
6.30 to 7.00,6.51,"NS(=O)(=O)N1CCC2(CC1)C(COc1cccc(OC(F)F)c1)C2(F)F (single isomer, unassigned) [Example A29, 2-{[3-(difluoromethoxy)phenoxy]methyl}-1,1-difluoro-6-azaspiro[2.5]octane-6-sulfonamide]"

# Source: US12331022B2, “Spiropiperidine allosteric modulators of nicotinic acetylcholine receptors” (Merck Sharp & Dohme LLC, priority 2019, dated 2025)
